The source of these data is ChEMBL document CHEMBL1201862, “PubChem BioAssay data set” (2004).

Some test systems named below: A498; BT-549; CAKI-1; COLO 205; DU-145; HCT-15; HOP-62; Hs-578T; M14; MDA-MB-231; MDA-MB-435; Malme-3M; OVCAR-4; OVCAR-8; SK-MEL-2; SNB-75; TK-10; UACC-257; UACC-62; HCC 2998.
Experiment in all cases: inhibition of tumour cell growth, NCI panel, 48 h

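Where inhibition never reached the appropriate level, the endpoint shown equals the highest concentration tested. Otherwise, values were interpolated linearly from a five-concentration, 48-hour dose response in 96-well plates. Here, GI50 denotes the concentration required for 50% inhibition of growth.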 Active and inactive are the calls of the source. Cut-off read from the data, not from the text of the source: active = GI50 up to about 1.1 µM and inactive = higher.

For the molecule `COc1cc(/C=C2\Cc3cc(OC)c(OC)cc3C2=O)cc(OC)c1`, the GI50 with A498 was 36.8 µM (inactive); in the assay with BT-549, 15.3 µM (inactive); in the assay on CAKI-1 it was > 46.8 µM (inactive); in the assay with COLO 205, > 46.7 µM (inactive); in the assay on DU-145, > 100 µM (inactive); in the assay on HCT-15, 5.26 µM. Further, the GI50 in the assay with HOP-62 is 15.8 µM (inactive); in the assay with Hs-578T, 22 µM (inactive); in the assay with M14, > 100 µM (inactive); in the assay on MDA-MB-231, 36.3 µM (inactive); in the assay on MDA-MB-435, 1.04 µM (active); with Malme-3M, 15.8 µM (inactive). Also, the GI50 in the assay with OVCAR-4 is > 45.4 µM (inactive); with OVCAR-8, > 26 µM (inactive); with SK-MEL-2 it was > 60 µM (inactive); with SNB-75 it was 9.53 µM (inactive); in the assay on TK-10, 48 µM (inactive); with UACC-257, > 87.3 µM (inactive). Also, the GI50 with UACC-62 was 14.2 µM (inactive).
With `O=C1c2ccccc2CN1c1ccc(O)cc1`, the GI50 in the assay on A498, in the assay with BT-549, in the assay with CAKI-1, in the assay with COLO 205, in the assay on DU-145 and in the assay with HCC 2998 was > 100 µM (inactive) in each case. The GI50 in the assay on HCT-15 is greater than 100 µM; with HOP-62, > 100 µM (inactive); with Hs-578T it was > 100 µM (inactive); in the assay with M14, > 100 µM (inactive); in the assay with MDA-MB-231, > 100 µM (inactive); with MDA-MB-435 it was > 100 µM (inactive). In addition, the GI50 in the assay with Malme-3M, in the assay on OVCAR-4, with OVCAR-8, with SK-MEL-2, with TK-10 and with UACC-257 was > 100 µM (inactive) each time. The GI50 with UACC-62 was > 100 µM (inactive).
`CC(=O)c1ccc2c3c1[C@H]1O[C@H]1c1cccc(c1-3)[C@@H]1O[C@H]21`: the GI50 was 2.37 µM (inactive) in the assay with A498; 1.87 µM (inactive) in the assay with BT-549; 1.29 µM (inactive) in the assay with CAKI-1; 1.71 µM (inactive) with COLO 205; 2.37 µM (inactive) in the assay on DU-145; 0.959 µM in the assay with HCT-15. Also, the GI50 is 2.39 µM (inactive) in the assay on HOP-62; 1.53 µM (inactive) with Hs-578T; 1.61 µM (inactive) in the assay with M14; 2.14 µM (inactive) in the assay with MDA-MB-231; 1.79 µM (inactive) in the assay on MDA-MB-435; 1.37 µM (inactive) in the assay with Malme-3M. For the same molecule, the GI50 in the assay with OVCAR-4 was 1.67 µM (inactive); with OVCAR-8 it was 1.56 µM (inactive); in the assay with SK-MEL-2 it was 2.74 µM (inactive); in the assay on SNB-75 it was 1.93 µM (inactive); with TK-10 it was 4.21 µM (inactive); in the assay with UACC-257 it was 2.04 µM (inactive). Further, in the assay with UACC-62, the GI50 was 2.01 µM (inactive).
As to `Cc1ccc(SCC(OCn2cnc3c(Cl)nc(N)nc32)[C@H](C)F)cc1` (stereo partly specified), the GI50 is 52.4 µM (inactive) with BT-549; > 100 µM (inactive) with CAKI-1; > 100 µM (inactive) with COLO 205; > 100 µM (inactive) in the assay on DU-145; > 100 µM (inactive) in the assay on HCC 2998; greater than 100 µM with HCT-15. The GI50 with HOP-62 is > 100 µM (inactive); with Hs-578T, > 100 µM (inactive); in the assay on M14, > 100 µM (inactive); in the assay with MDA-MB-231 it was 46.7 µM (inactive); in the assay with MDA-MB-435 it was > 100 µM (inactive); in the assay with Malme-3M it was 88.9 µM (inactive). For the same molecule, the GI50 in the assay on OVCAR-4 was 71.3 µM (inactive); with OVCAR-8, 63 µM (inactive); with SK-MEL-2, > 100 µM (inactive); in the assay on SNB-75, > 100 µM (inactive); in the assay on TK-10 it was > 100 µM (inactive); in the assay with UACC-257, 21.1 µM (inactive). The GI50 with UACC-62 is > 100 µM (inactive).
For `COc1ccc2[nH]c3c(C)c4cnccc4c(C)c3c2c1`, the GI50 is 7.48 µM (inactive) in the assay with BT-549; 6.27 µM (inactive) in the assay on CAKI-1; 1.58 µM (inactive) in the assay with COLO 205; 2.93 µM (inactive) in the assay on DU-145; 1.67 µM (inactive) with HCC 2998; 1.61 µM in the assay on HCT-15. Moreover, the GI50 in the assay with HOP-62 is 1.43 µM (inactive); with Hs-578T, 5.55 µM (inactive); in the assay with M14 it was 1.26 µM (inactive); in the assay with MDA-MB-231 it was 2.8 µM (inactive); in the assay on MDA-MB-435, 1.48 µM (inactive); in the assay with Malme-3M, 1.45 µM (inactive). Besides, the GI50 in the assay with OVCAR-4 was 1.94 µM (inactive); in the assay on OVCAR-8, 1.01 µM (active); in the assay on SK-MEL-2, 5.14 µM (inactive); in the assay with SNB-75, 2.25 µM (inactive); in the assay with TK-10 it was 5.69 µM (inactive); in the assay on UACC-257 it was 4.07 µM (inactive). Besides, the GI50 in the assay with UACC-62 was > 10 µM (inactive).
`CCN(CC)c1nc(NC2CCCCC2)c2nc(N(CC)CC)nc(NC3CCCCC3)c2n1`: the GI50 in the assay on A498 was > 100 µM (inactive); in the assay on BT-549 it was > 100 µM (inactive); with DU-145, > 100 µM (inactive); in the assay on HCC 2998 it was > 100 µM (inactive); in the assay with HCT-15, greater than 100 µM; in the assay on HOP-62, 73.1 µM (inactive). For the same molecule, the GI50 in the assay with Hs-578T is > 100 µM (inactive); in the assay on M14, > 100 µM (inactive); in the assay on MDA-MB-231, 88.1 µM (inactive); with MDA-MB-435, > 100 µM (inactive); in the assay on Malme-3M, > 100 µM (inactive); in the assay with OVCAR-8 it was > 100 µM (inactive). The GI50 in the assay on TK-10 and in the assay with UACC-62 was > 100 µM (inactive) each time.
`CN1CCCCCC(=N\O)/C(=N/O)CCCCC1`: the GI50 is > 100 µM (inactive) with A498; 80.7 µM (inactive) with BT-549; > 100 µM (inactive) in the assay on CAKI-1; > 100 µM (inactive) with DU-145; greater than 100 µM with HCT-15; > 100 µM (inactive) with HOP-62. The GI50 in the assay with Hs-578T, in the assay on M14, in the assay on MDA-MB-231, in the assay on MDA-MB-435, with Malme-3M and with OVCAR-8 was > 100 µM (inactive) in each case. In addition, the GI50 in the assay with SNB-75, in the assay with TK-10 and in the assay with UACC-257 was > 100 µM (inactive) throughout.
Regarding `O=S(=O)(O)c1ccc(/N=N/c2ccc(/N=N/c3c(O)c(S(=O)(=O)O)cc4cc(S(=O)(=O)O)ccc34)cc2)cc1`, the GI50 with BT-549 is > 100 µM (inactive); with CAKI-1, > 100 µM (inactive); in the assay with COLO 205, > 100 µM (inactive); in the assay with DU-145, > 100 µM (inactive); in the assay with HCC 2998 it was > 100 µM (inactive); with HCT-15 it was greater than 100 µM. The GI50 with HOP-62, in the assay on Hs-578T, in the assay on M14, in the assay with MDA-MB-231, in the assay with MDA-MB-435 and in the assay with Malme-3M was > 100 µM (inactive) each time. In addition, the GI50 in the assay on OVCAR-4, in the assay with OVCAR-8, in the assay with SK-MEL-2, in the assay with TK-10, with UACC-257 and in the assay on UACC-62 was > 100 µM (inactive) each time.
On to `CC(C)(C)C(=O)CP(=O)(O)O`, for which the GI50 with A498 is > 100 µM (inactive); with BT-549 it was > 100 µM (inactive); in the assay on CAKI-1, > 100 µM (inactive); in the assay with COLO 205 it was > 100 µM (inactive); with DU-145, > 100 µM (inactive); with HCT-15, greater than 100 µM. Also, the GI50 with HOP-62, in the assay on Hs-578T, with M14, in the assay with MDA-MB-231, with MDA-MB-435 and in the assay with Malme-3M was > 100 µM (inactive) throughout. Besides, the GI50 with OVCAR-4, with OVCAR-8, in the assay with SK-MEL-2, with SNB-75, in the assay with TK-10 and in the assay on UACC-257 was > 100 µM (inactive) each time. Also, the GI50 with UACC-62 is > 100 µM (inactive).
Consider `Cc1cc(-c2nc3c(O)cccc3s2)ccc1N`, for which the GI50 is 22.1 µM (inactive) in the assay with BT-549; 21.3 µM (inactive) in the assay with CAKI-1; 38.7 µM (inactive) in the assay on COLO 205; > 100 µM (inactive) in the assay with DU-145; 32.8 µM (inactive) in the assay on HCC 2998; 25.4 µM in the assay on HCT-15. Also, the GI50 with HOP-62 was 25.6 µM (inactive); in the assay on Hs-578T it was 18.2 µM (inactive); in the assay with M14, 16.7 µM (inactive); in the assay with MDA-MB-231 it was 22.9 µM (inactive); with MDA-MB-435, 17.7 µM (inactive); in the assay on OVCAR-8 it was 20 µM (inactive). The GI50 with SK-MEL-2 was 22.7 µM (inactive); in the assay on SNB-75, 83.6 µM (inactive); in the assay on TK-10, 26.8 µM (inactive); with UACC-257 it was 20.3 µM (inactive); in the assay on UACC-62 it was 12.2 µM (inactive).
On to `O=c1c(C(c2ccc([N+](=O)[O-])cc2)c2c(O)oc3ccccc3c2=O)c(O)oc2ccccc12`, for which the GI50 was > 100 µM (inactive) in the assay with A498; > 100 µM (inactive) with BT-549; > 100 µM (inactive) in the assay with CAKI-1; > 100 µM (inactive) with COLO 205; > 100 µM (inactive) with DU-145; greater than 100 µM with HCT-15. The GI50 in the assay with HOP-62, in the assay with Hs-578T, with MDA-MB-231, in the assay with MDA-MB-435, in the assay with Malme-3M and in the assay on OVCAR-4 was > 100 µM (inactive) each time. Besides, the GI50 is > 100 µM (inactive) with OVCAR-8; > 100 µM (inactive) in the assay with SK-MEL-2; 86.5 µM (inactive) in the assay on SNB-75; > 100 µM (inactive) in the assay with TK-10; > 100 µM (inactive) in the assay on UACC-257; > 100 µM (inactive) in the assay with UACC-62.
